Experimental data reported in patent publication US20070054868A1, “Synergistic polyphenol compounds, compositions thereof, and uses thereof” (The Trustees of Columbia University in the City of New York, priority 2005, published 2007).

Experiments:
IGF-1 protein = assay: Western blot analysis for IGF in SW837 cells; format: cell-based, human
Text: (§1) Total cellular protein was extracted and equivalent amounts of protein were examined by western blot analysis, as described above in Example 6. Cell lysates were separated by SDS-PAGE using 7.5 to 15% polyacrylamide gels and transferred onto Immobilon-P transfer membranes (Millipore Co., Bedford, Mass.). The primary antibodies for IGF-1R[…](#3022) and p-IGF-1R (#3021) were purchased from Cell Signaling Technology (Beverly, Mass.). The primary antibodies for IGF-1R[…](sc-713) and IGFBP-3 (sc-6003) were purchased from Santa Cruz Biotechnology (Santa Cruz, Calif.). The primary antibodies for IGF-1 (clone Sm1.2) and actin (A2066) were purchased from Upstate Cell Signaling Solutions (Charlottesville, Va.) and Sigma Chemical Co. (St Louis, Mo.), respectively. An antibody to actin was used as a loading control. Anti-mouse IgG (Amersham Pharmacia Biosciences, Piscataway, N.J.), anti-rabbit IgG (Amersham Pharmacia Biosciences), or anti-goat IgG (Santa Cruz Biotechnology) antibodies were used as the secondary antibodies. Each membrane was developed using an ECL-enhanced chemiluminescence system (Amersham Biosciences).

p-IGF-1R = assay: Western blot analysis for IGF in SW837 cells; format: cell-based, human; conditions: 20 μg/mL, within 6 hours
Text: as §1

IGFBP-3 protein = assay: Western blot analysis for IGF in SW837 cells; format: cell-based, human
Text: as §1

AP-1 promoter = assay: Transient transfection luciferase reporter assay in SW837 cells; format: cell-based, human; conditions: 10 and 20 μg/mL, 24 hours, inhibition most apparent for this promoter
Procedure: (§2) Reporter assays were performed performed using the methods described in Suzui, et al., Cancer Res., 62:3997-4006 (2002). The COX-2-luciferase reporter plasmid phPES2(−327/+59) was provided by the National Cardiovascular Research Institute (Osaka, Japan). The pAP-1 luciferase reporter plasmid was provided by the National Cancer Institute (Bethesda, Md.). The NF-[…]B promoter luciferase reporter plasmid […]NF-[…]B-Luc is described in Masuda et al., Clin. Cancer Res. 7:4220-4229 (2001). One μg of DNA of the indicated luciferase reporter plasmid was transfected into SW837 human colon cancer cells (3.0×10^5 cells/35-mm diameter dish) using Lipofectin reagent (Invitrogen) in opti-MEM I medium (Invitrogen). After 24 hours the cells were treated with EGCG (0, 10, or 20 μg/mL) for 24 hours, and extracts were then prepared. Luciferase activities were determined using a luciferase assay system ([…]., Madison, Wis.). In all of these reporter assays the cells were also cotransfected with a CMV-[…]-galactosidase ([…]-gal) reporter. Luciferase activities were normalized with respect to the […]-gal activities, to correct for differences in transfection efficiency, using the methods described in Suzui, et al., Cancer Res., 62:3997-4006 (2002).

NF-κB promoter = assay: as above; format: cell-based, human; conditions: 10 and 20 μg/mL, 24 hours
Procedure: as §2

COX-2 promoter = assay: as above; format: cell-based, human; conditions: 10 and 20 μg/mL, 24 hours
Procedure: as §2

[1] = system: SW837 human colon cancer cells; assay: Cell proliferation assay (Coulter Counter); format: cell-based; conditions: 1.0 μg/mL, 96 hours
Procedure: Thirty thousand SW837 human colon cancer cells were seeded into multiple 35-mm diameter dishes in DFI0 medium, and 24 hours later the cells were treated with EGCG (0, 1.0, or 20 μg/mL) for 96 hours, during which time, the medium and drugs were not changed. As a control, the cells were treated with 0.1% DMSO. Every 24 hours, and for a total time of 96 hours, replicate plates of cells were washed with PBS and the attached cells were collected by trypsinization. The numbers of cells in replica plates were then counted using a Coulter Counter (Beckman Coulter Co., Fullerton, Calif.) as described in Shimizu et al., Clin. Cancer Res., 10:1130-1140 (2004).

[2] = system: HT29 human colon cancer cells; assay: DilC16-labelled plasma membrane, extraction using cold Triton X-100; format: cell-based
Procedure: HT29 human colon cancer cells were treated with the fluorescent lipid analog DilC16, which preferentially incorporates into ordered domains in the plasma membrane.

HT29 cells = assay: Filipin staining of plasma membrane cholesterol; format: cell-based, human
Procedure: These effects were detected with as little as […] of EGCG, and within 5 minutes. Phosphorylation of EGFR, ERK1, ERK2, and AKT were suppressed in cells treated with methyl-β-cyclodextrin, which depletes plasma membrane cholesterol. […] In addition, the inhibitory effect of EGCG on phosphorylation of EGFR was not blocked by the addition of cholesterol on the growth medium. These findings provide evidence that EGCG can alter membrane domain organization in colon cancer cells ant that this is not due to cholesterol depletion. It was noted that pre-treatment of the cells with EGCG or Poly E inhibited the binding of Alexa 488-labeled EGF to the cell surface receptor EGFR.

IGF-1 mRNA = assay: Semiquantitative RT-PCR analysis in SW837 cells; format: cell-based, human; conditions: 20 μg/mL, at 12 hours, additional decline at 24 and 48 hours
Procedure: (§3) RNA extraction and semiquantitative RT-PCR analysis were performed as described above in Example 7. Total RNA was isolated from SW837 human colon cancer cells using the Trizol reagent (Invitrogen) according to the manufacturer's instructions. cDNA was amplified from 1 μg of total RNA using Superscript one-step RT-PCR with the platinum Taq system (Invitrogen). Actin specific primer sets are described in Suzui, et al., Cancer Res., 62:3997-4006 (2002). […] Each amplification cycle consisted of 0.5 minutes at 94° C. for denaturation, 0.5 minutes at 55° C. for primer annealing, and 1 minute at 72° C. for extension. After PCR amplification, the fragments were analyzed by agarose gel electrophoresis and stained with ethidium bromide. The intensities of bands were quantified with NIH Image software version 1.62.

MMP-7 mRNA = assay: Semiquantitative RT-PCR analysis in SW837 cells; format: cell-based, human; conditions: 20 μg/mL, at 12 hours, additional decrease at 24 to 48 hours
Procedure: as §3

TGF-β2 mRNA = assay: Semiquantitative RT-PCR analysis in SW837 cells; format: cell-based, human; conditions: 20 μg/mL, at 3 hours
Procedure: as §3

MMP-9 mRNA = assay: Semiquantitative RT-PCR analysis in SW837 cells; format: cell-based, human; conditions: 20 μg/mL, at 12 hours, additional decrease at 24 to 48 hours
Procedure: as §3

IGFBP-3 mRNA = assay: Semiquantitative RT-PCR analysis in SW837 cells; format: cell-based, human; conditions: 20 μg/mL, at 3 to 12 hours, maximum at 6 hours
Procedure: as §3

[3] = HT29, Triton X-100 sensitivity and DilC16 incorporation

With (−)-epigallocatechin gallate the “levels of the IGF-1 protein” value (IGF-1 protein; 1.0 μg/mL, 96 hours) was “decrease”, the “levels of the IGF-1 protein” value (IGF-1 protein; 20 μg/mL, at 12 hours) was “moderate decrease” and the “levels of the IGF-1 protein” value (IGF-1 protein; 20 μg/mL, at 24 hours) was “marked decrease”. For the same substance, the “levels of the p-IGF-1R protein” value (p-IGF-1R) was “marked decrease”, the “level of the IGFBP-3 protein” value (IGFBP-3 protein; 1.0 μg/mL, 96 hours) was “increase” and the “level of the IGFBP-3 protein” value (IGFBP-3 protein; 20 μg/mL, at 6 hours, persisted for at least 48 hours) was “marked increase”. The “AP-1 luciferase reporter activity” value (AP-1 promoter) was “inhibition”, the “NF-κB luciferase reporter activity” value (NF-κB promoter) was “inhibition” and the “COX-2 luciferase reporter activity” value (COX-2 promoter) was “inhibition”. The inhibition of growth [1] was “about 55%”, the “lowest concentration at which the membrane effects were detected” value [2, 3] was 2 mg/mL and the “time within which the membrane effects were detected” value [2, 3] was ≤ 5 min. For the same substance, the “sensitivity of the plasma membrane to extraction using cold Triton X-100” value ([2]; HT29 pretreated with DilC16) was “marked increase”, the “effects on plasma membrane properties versus cholesterol depletion (filipin staining)” value (HT29 cells) was “not associated with cholesterol depletion” and the “level of IGF-1 mRNA” value (IGF-1 mRNA) was “decrease”. For the same substance, the “cellular level of MMP-7 mRNA” value (MMP-7 mRNA) was “marked decrease”, the “level of TGF-β2 mRNA” value (TGF-β2 mRNA) was “transiently increased” and the “cellular level of MMP-9 mRNA” value (MMP-9 mRNA) was “marked decrease”. The “levels of IGFBP-3 mRNA” value (IGFBP-3 mRNA) was “increase”.
